Here are results for 2 compounds from patent publication US20090221653A1, “7-(2-amino-1-hydroxy-ethyl)-4-hydroxybenzothiazol-2(3H)-one-derivatives as beta2 adrenoreceptor agonists” (AstraZeneca AB, priority 2005, published 2009).

Counter-ions that a name gives are not always drawn.

In one test the target is T1, Adrenergic β2 (Homo sapiens, UniProt P07550).
T1 construct: endogenous in cells; host or cells: H292 cells
Put plainly: Alternative Adrenergic β2 Mediated cAMP Production in H292 cells (AlphaScreen cAMP detection). It counts as cell-based. As to conditions: for EC50: cAMP, test compounds incubated 60 minutes, 300 μM rolipram, read-out: β2 pEC50 (converted); for β2 Int Act: fraction relative to the maximum activity determined for formoterol, 60 minutes incubation. (In general: Alpha assays give light when donor and acceptor beads are brought close together.)

A further test deals with T2, β2 receptor (Homo sapiens, UniProt P07550).
T2 construct: endogenous in cells; host or cells: H292 cells
T2 sequence (P07550 whole entry): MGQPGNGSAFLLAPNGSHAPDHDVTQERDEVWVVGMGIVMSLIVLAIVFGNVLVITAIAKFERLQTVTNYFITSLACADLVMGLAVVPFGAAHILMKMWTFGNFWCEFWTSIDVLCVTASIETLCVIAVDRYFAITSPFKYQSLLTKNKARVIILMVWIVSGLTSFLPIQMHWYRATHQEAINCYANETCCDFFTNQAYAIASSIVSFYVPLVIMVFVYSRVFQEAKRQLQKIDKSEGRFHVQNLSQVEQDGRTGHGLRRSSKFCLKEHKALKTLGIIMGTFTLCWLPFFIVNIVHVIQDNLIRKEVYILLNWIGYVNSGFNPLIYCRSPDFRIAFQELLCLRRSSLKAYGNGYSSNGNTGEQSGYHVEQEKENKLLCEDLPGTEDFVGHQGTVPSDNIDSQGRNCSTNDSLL
Put plainly: Adrenergic β2 mediated cAMP production in H292 cells (AlphaScreen cAMP detection). It counts as cell-based. The settings on record: for EC50: cAMP, test compounds incubated 10 minutes, 300 μM rolipram; for Intrinsic Activity: fraction relative to the maximum activity determined for formoterol, 10 minutes incubation. The protocol: H292 cells were grown in RPMI (Roswell Park Memorial Institute) medium containing, 10% (v/v) FBS (foetal bovine serum) and 2 mM L-glutamine. Cells were grown in 225 cm2 flasks containing 25 mL media in a humidified incubator at 37° C., 5% CO2. Cells were harvested from the flask and passaged at a 1 in 10 dilution once per week.
The media from flasks containing H292 cells was removed, rinsed with 10 mL PBS (phosphate buffered saline) and replaced with 10 mL Accutase™ cell detachment solution. Flasks were incubated for 15 minutes in a humidified incubator at 37° C., 5% CO2. The cell suspension was counted and the cells re-suspended in RPMI media (containing 10% (v/v) FBS and 2 mM L-glutamine) at 0.05×10^6 cells per mL. 5000 cells in 100 μL were added to each well of a tissue-culture-treated 96-well plate and the cells incubated overnight in a humidified incubator at 37° C., 5% CO2. The culture media was removed, washed twice with 100 μL assay buffer and replaced with 50 μL assay buffer. Cells were rested at room temperature for 20 minutes after which time 25 μL of rolipram (1.2 mM made up in assay buffer containing 2.4% (v/v) dimethylsulphoxide) was added. Cells were incubated with rolipram for 10 minutes after which time test compounds (made up as ×4 concentrated stocks in assay buffer containing 4% (v/v) dimethylsulphoxide) were added and the cells were incubated for 10 minutes at room temperature. Final rolipram concentration in the assay was 300 μM and final vehicle concentration was 1.6% (v/v) dimethylsulphoxide. The reaction was stopped by removing supernatants, washing once with 100 μL assay buffer and replacing with 50 μL lysis buffer. The cell monolayer was frozen at −80° C. for 30 minutes (or overnight).
The concentration of cAMP (cyclic adenosine monophosphate) in the cell lysate was determined using the AlphaScreen™ methodology. The frozen cell plate was thawed for 20 minutes on a plate shaker then 10 μL of the cell lysate was transferred to a 96-well white plate. 40 μL of mixed AlphaScreen™ detection beads (containing equal volumes of donor beads (pre-incubated with biotinylated cAMP in the dark for 30 minutes) and acceptor beads), was added to each well and the plate incubated at room temperature for 10 hours in the dark. The AlphaScreen™ signal was measured using an EnVision spectrophotometer (Perkin-Elmer Inc.) with the recommended manufacturer's settings. cAMP concentrations were determined by reference to a calibration curve determined in the same experiment using standard cAMP concentrations (made up in lysis buffer in a 96-well tissue-culture-treated plate and frozen/thawed alongside the test samples) and detected using the same protocol. Concentration response curves for agonists were constructed to determine both the pEC50 and Intrinsic Activity.
A general note: cAMP levels reflect the balance of adenylyl cyclase and phosphodiesterase activity.

In test [1] the target is T3, recombinant human adrenergic beta 1 receptors (Homo sapiens, UniProt P08588).
T3 construct: purchased Euroscreen
T3 sequence (P08588 whole entry): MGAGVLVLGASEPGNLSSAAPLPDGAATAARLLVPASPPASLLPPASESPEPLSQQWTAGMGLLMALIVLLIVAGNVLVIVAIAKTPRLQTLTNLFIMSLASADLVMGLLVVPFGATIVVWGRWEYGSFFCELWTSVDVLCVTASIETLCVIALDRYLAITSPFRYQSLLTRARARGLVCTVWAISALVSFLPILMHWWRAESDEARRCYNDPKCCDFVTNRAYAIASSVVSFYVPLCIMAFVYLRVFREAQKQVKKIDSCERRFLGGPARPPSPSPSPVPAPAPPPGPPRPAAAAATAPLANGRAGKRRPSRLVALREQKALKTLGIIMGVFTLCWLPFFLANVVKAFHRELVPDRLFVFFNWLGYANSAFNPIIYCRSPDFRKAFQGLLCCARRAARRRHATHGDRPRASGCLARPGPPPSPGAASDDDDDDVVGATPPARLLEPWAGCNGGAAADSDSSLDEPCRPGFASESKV
Nature of the test: Adrenergic β1 selectivity assay, inhibition of [125I]-Iodocyanopindolol binding. The settings on record: membranes, [125I]-Iodocyanopindolol; read-out: β1 bind pIC50 (converted).

T1 sequence (P07550 whole entry): as the sequence (P07550 whole entry) above

For the compound `Cl.O=c1[nH]c2c(O)ccc([C@@H](O)CNCCSCCOCCc3cccc4ccccc34)c2s1` [Example 4, 4-Hydroxy-7-((1R)-1-hydroxy-2-{[2-({2-[2-(1-naphthyl)ethoxy]ethyl}thio)ethyl]-amino}ethyl)-1,3-benzothiazol-2(3H)-one hydrochloride], at Adrenergic β2, the EC50 was 0.1 nM and the “β2 Int Act” value was 0.9. At β2 receptor, the EC50 is 0.1 nM and the “Intrinsic Activity” value is 0.9. In addition, in test [1], the IC50 was 126 nM.
For `O=c1[nH]c2c(O)ccc([C@@H](O)CNCCCS(=O)(=O)CCOCCc3cccc4ccccc34)c2s1` [Example 2, 4-Hydroxy-7-((1R)-1-hydroxy-2-{[3-({2-[2-(1-naphthyl)ethoxy]ethyl}sulfonyl)propyl]-amino}ethyl)-1,3-benzothiazol-2(3H)-one trifluoroacetate], on Adrenergic β2, the EC50 is 0.158 nM and the “β2 Int Act” value was 1. For the same compound, on β2 receptor, the EC50 was 0.158 nM and the “Intrinsic Activity” value is listed as 1.0. In addition, the IC50 in test [1] is 15.8 nM.
